# Measurements: PubChem BioAssay AID602335 (The Scripps Research Institute Molecular Screening Center, 2012)
# Calls of active or inactive are those of the source. The rule behind the calls is not given here.
# Assays:
# [1] = target: Diacylglycerol lipase-beta (Mus musculus) (UniProt Q91WC9); experiment: ABHD6 anti-target inhibition potency, dose response, selectivity assay for DAGLb inhibitor project, cell-based, gel-based competitive ABPP, fluorescence, in situ (AID 602335); details: DAGLb
# [2] = target: Monoacylglycerol lipase ABHD6 (Mus musculus) (UniProt Q8R2Y0); experiment: as above
# Sequence of Monoacylglycerol lipase ABHD6 (Mus musculus) (Q8R2Y0 whole entry, looked up): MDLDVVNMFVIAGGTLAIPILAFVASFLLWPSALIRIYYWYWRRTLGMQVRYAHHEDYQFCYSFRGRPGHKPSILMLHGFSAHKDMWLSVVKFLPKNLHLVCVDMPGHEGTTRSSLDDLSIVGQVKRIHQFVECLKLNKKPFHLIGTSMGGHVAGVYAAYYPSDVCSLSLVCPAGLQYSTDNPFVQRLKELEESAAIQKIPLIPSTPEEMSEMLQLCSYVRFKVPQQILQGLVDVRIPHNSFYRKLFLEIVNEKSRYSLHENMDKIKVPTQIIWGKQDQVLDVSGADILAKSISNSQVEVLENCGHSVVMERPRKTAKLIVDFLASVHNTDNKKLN
# Sequence of Diacylglycerol lipase-beta (Mus musculus) (Q91WC9 whole entry, looked up): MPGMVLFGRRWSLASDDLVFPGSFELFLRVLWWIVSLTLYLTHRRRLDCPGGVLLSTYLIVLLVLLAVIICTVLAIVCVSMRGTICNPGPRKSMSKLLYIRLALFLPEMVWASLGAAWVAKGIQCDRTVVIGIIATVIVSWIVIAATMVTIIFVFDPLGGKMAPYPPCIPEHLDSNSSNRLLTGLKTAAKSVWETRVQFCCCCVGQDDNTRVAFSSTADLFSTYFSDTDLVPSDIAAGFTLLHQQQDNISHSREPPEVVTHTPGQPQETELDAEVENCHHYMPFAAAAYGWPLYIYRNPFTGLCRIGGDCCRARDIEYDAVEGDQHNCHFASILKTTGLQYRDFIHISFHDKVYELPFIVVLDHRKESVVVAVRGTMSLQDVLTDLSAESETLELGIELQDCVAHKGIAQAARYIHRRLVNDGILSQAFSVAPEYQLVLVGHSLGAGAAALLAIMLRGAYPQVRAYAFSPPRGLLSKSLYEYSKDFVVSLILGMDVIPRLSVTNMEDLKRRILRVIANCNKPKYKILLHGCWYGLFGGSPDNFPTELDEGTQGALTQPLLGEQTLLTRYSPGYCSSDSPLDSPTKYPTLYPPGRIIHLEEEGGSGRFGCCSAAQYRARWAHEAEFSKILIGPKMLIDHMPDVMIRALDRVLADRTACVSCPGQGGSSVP
Structure (SMILES),IC50 [1],IC50 [2]
O=C(N1CCCCC1c1ccccc1)n1cc(-c2ccc(-c3cccc(CO)c3)cc2)nn1 (stereo unspecified),> 100 nM (inactive),
COc1ccc(-c2ccc(-c3cn(C(=O)N4CCCCC4c4ccccc4)nn3)cc2)cc1 (stereo unspecified),> 100 nM (inactive),1.3 nM
O=C(N1CCCCC1c1ccccc1)n1cc(-c2ccc(-c3ccccc3)cc2)nn1 (stereo unspecified),> 100 nM (inactive),0.17 nM
O=C(O)c1cccc(-c2ccc(-c3cn(C(=O)N4CCCCC4Cc4ccccc4)nn3)cc2)c1 (stereo unspecified),> 100 nM (inactive),
